# Laboratory results: US11098072B2, “Alkenyl and beta-substituted phosphonates as antimicrobial agents” (The George Washington University, priority 2017, dated 2021)
# Values joined by “and” are separate entries in the source; they are usually repeats but may differ in a detail not shown here. Equal entries are not always repeated. Where two headings read alike, the source gives them in different places.
# Key:
# [1] = Metabolic stability in mouse liver microsomes; type: in vitro ADME; conditions: pH 7.4
# Method: (§1) In this protocol, the metabolic stability of compounds at 1 μM was determined in mouse liver microsomes (MLM) and mouse plasma. For microsomal stability each test compound was incubated in an aqueous reaction mixture consisting of 0.25 […], 1.2 mM NADPH, 3.3 mM MgCl2, and 100 mM potassium phosphate buffer (pH 7.4). For plasma stability each test compound was incubated in mouse plasma (VWR). After incubation at 37° C. a 50 μL aliquot of the reaction was transferred to 200 μL ice cold acetonitrile containing internal standard (Enalapril, 100 ng/mL). The quenched reaction mixtures were centrifuged at 3200 rpm for 5 min, and 100 μL of the supernatant were transferred to 96-well plate and analyzed by LC-MS/MS using an Applied Biosystems-Sciex API 4000. Analyte/internal standard peak area ratios were used to evaluate stability. […] An Amour C18 column (2.1×30 mm, 5 μm; Analytical Sales and Services, Pompton Plains, N.J.) was used for chromatographic separation. Mobile phases were 0.1% formic acid, 1 mM triethylamine in water and acetonitrile with a flow rate of 0.35 mL/min. The starting phase was 0% acetonitrile increased to 100% acetonitrile over 3 minutes. Peak areas were integrated using Analyst Software (AB Sciex, Foster City, Calif.).
# P. falciparum [2] = assay: Growth inhibition against P. falciparum; type: cell-based
# P. falciparum DXR [3] = target: T1, P. falciparum DXR (Plasmodium falciparum, UniProt Q8IKG4); assay: Inhibition of P. falciparum DXR enzyme; type: biochemical
# T1 sequence (Q8IKG4 73-488): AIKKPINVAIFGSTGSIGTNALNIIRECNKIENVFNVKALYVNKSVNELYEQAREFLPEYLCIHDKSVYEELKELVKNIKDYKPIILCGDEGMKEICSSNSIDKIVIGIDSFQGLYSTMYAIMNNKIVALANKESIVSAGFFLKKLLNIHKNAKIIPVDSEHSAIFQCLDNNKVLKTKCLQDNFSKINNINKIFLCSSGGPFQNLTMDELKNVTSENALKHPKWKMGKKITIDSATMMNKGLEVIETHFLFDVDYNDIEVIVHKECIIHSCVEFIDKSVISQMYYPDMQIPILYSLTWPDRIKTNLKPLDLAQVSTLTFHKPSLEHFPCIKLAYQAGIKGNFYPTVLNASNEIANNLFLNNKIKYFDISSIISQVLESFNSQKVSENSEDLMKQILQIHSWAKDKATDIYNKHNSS
# HepG2 cells = assay: HepG2 cell inhibition (cytotoxicity) assay; type: cell-based; conditions: for IC50: Homo sapiens
# Method: For cytotoxicity assays, HepG2 cells (ATCC HB-8065) were grown in DMEM supplemented with 4 mM L-glutamine (Gibco #11966-025) with either 4.5 g/L D-glucose or 1.8 g/L galactose as carbon source. Cells were trypsinized, resuspended in the respective medium (DMEM/glutamine/glucose or DMEM/glutamine/galactose) to 4×10^5 cells/mL and 50 μL/well transferred to flat-bottom white opaque tissue culture plates (Falcon #353296) containing 50 μL/well of the respective medium with test compound. Compound concentrations were two-fold dilutions ranging from 50 μM to 0.049 μM as well as the drug-free DMSO-only control. All concentrations were tested in duplicate for each carbon source. After 24 h incubation at 5% CO2, 37° C., 10 μL/well of Celltiter-Glo reagent (Promega #G9241) was added and luminescence recorded after 20 min incubation in the dark.
# [4] = system: P. falciparum had1 mutant strain; type: cell-based; conditions: for sensitivity in had1+HAD1-GFP strain: mutant supplied with wild-type copy of HAD1; for resistance of had1 parasites compared with wild-type 3D7: shift of IC50 curve
# in vitro = in vitro ADME; conditions: mouse plasma, compound 1 μM, 37° C.; read-out: Plasma stability (t1/2)
# Method: as §1
# [5] = In vivo exposure study in mice; design: species or system Swiss Webster mice
# Method: We designed a compound exposure study to determine plasma concentration of 12a under similar conditions to the efficacy study.
# Animal care and all procedures were conducted at Charles River Laboratories (Wilmington, Mass.) and performed in accordance with the National Institutes of Health Guide for the Care and Use of Laboratory Animals and approved by the institutional animal care and use committee. […] The suspension was administered to unfasted female Swiss Weber mice (n=3) at 20 mg/kg i.p. Plasma samples (10 μL) were removed at 0.25, 0.5, 1, 2, 4, 6 and 8 h and stored at −80° C. Plasma samples were added to ice cold acetonitrile containing the internal standard, glafenine, as appropriate to bring samples into the standard curve range (50-10,000 ng/ml), then centrifuged for 5 minutes at 3200 rpm and the supernatant transferred to a 96-well sample plate for analysis by liquid chromatography-tandem mass spectrometry. The MRM transitions for glafenine and 12a were m/z: 370.9>296.9 and 180.075>119.9, respectively. A Synergi 4 μm Hydro-RP column (250×4.6 mm, 80 Å) was used for chromatographic separation. Mobile phases were 0.1% formic acid in water and acetonitrile with a flow rate of 1.2 mL/min. The starting phase was 0% acetonitrile for 3 minutes, increased to 60% acetonitrile over 6 minutes. Peak areas were integrated using Analyst Software (AB Sciex, Foster City, Calif.).
# MEP pathway metabolites = assay: MEP pathway metabolite assay (LC-MS/MS); type: cell-based, P. falciparum; conditions: 3D7, 65 nM (5× IC50), 10 h
# From the text: Thus, a mass spectrometry-based method was used to quantify the MEP metabolites from untreated P. falciparum versus parasites treated with this compound (FIG. 4). These metabolites include the DXR substrate (1-deoxy-D-xylulose 5-phosphate, DOXP), the DXR product (2-C-methylerythritol 4-phosphate, MEP), and the downstream metabolites (4-diphosphocytidyl-2-C-methylerythritol (CDP-ME) and 2-C-methyl-D-erythritol 2,4-cyclopyrophosphate (MEcPP)).
# Cultures were lysed with 5% saponin, the parasite pellets washed with 1× phosphate-buffered saline (PBS), and the pellets stored at −80° C. […]
# For LC separation, a Luna-NH2 column (3 um, 150×2 mm, Phenomenex) was used flowing at 0.4 mL/min. […] Metabolites were detected using MRM transitions that were previously optimized using standards. […] For quantification, an external standard curve was prepared using a series of standard samples containing different concentrations of metabolites and fixed concentration of the internal standard. […]
# P. berghei ANKA = assay: P. berghei-infected mouse model of malaria; type: in vivo; conditions: for luciferin signal intensity (parasitemia): read seven days after infection
# Method: Groups of mice were infected with luciferase-based blood-stage P. berghei ANKA by intraperitoneal (ip) injection. […] Seven days after infection, intensity of the luciferin signal was measured, correlating to the parasitemia burden.
# Mtb = Mtb growth inhibition (MIC99) in 7H9 and GAST-Fe media; type: cell-based, M. tuberculosis; conditions: Mycobacterium tuberculosis
# Method: Selected analogs were tested for the growth inhibition against P. falciparum and Mtb in both rich media (7H9) and minimal media (GAST-Fe) following reported procedures.
# Mtb DXR = Mtb DXR (Mycobacterium tuberculosis, UniProt P9WNS1); assay: Inhibition of Mtb DXR enzyme; type: biochemical, M. tuberculosis; conditions: percent remaining enzyme activity at 100 μM compound
# Method: Phosphonic acid salts and prodrugs were evaluated as inhibitors of DXR from Mtb and P. falciparum and the results are shown in Table 6. Initially, the percent remaining enzyme activity was studied using a treatment of each compound at a single concentration of 100 μM. […] In general, the compounds display greater inhibition of DXR from P. falciparum compared with activity against the Mtb homolog.
# P. falciparum DXR [6] = target: T1, P. falciparum DXR; conditions: background; read-out: P. falciparum DXR IC50; cited from earlier work
# P. falciparum [7] = conditions: earlier work / reference drug; read-out: P. falciparum growth IC50; cited from earlier work
# [8] = mouse liver microsomes, compound 1 μM, 37° C., read-out: Metabolic stability MLM (t1/2)
# [9] = minimal media (GAST-Fe), read-out: Mtb MIC99 Gast/Fe
# [10] = rich media (7H9), read-out: Mtb MIC99 7H9
# [11] = Plasmodium falciparum; Table 6, growth inhibition; read-out: P.f. IC50
# [12] = Table 6, N-acyl analogs, read-out: Pf Dxr IC50
# Chain of Mtb DXR (P9WNS1 whole entry): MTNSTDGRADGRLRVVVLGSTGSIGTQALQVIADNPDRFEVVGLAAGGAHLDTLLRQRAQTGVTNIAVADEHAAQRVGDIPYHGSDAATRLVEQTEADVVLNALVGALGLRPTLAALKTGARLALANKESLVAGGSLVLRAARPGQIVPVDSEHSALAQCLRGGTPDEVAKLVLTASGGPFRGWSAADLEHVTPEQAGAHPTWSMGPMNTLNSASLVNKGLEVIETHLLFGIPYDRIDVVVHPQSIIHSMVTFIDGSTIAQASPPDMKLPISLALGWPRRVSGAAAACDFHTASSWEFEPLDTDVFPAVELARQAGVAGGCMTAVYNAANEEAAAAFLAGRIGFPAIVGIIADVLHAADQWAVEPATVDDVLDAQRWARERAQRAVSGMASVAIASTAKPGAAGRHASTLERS
compound,measurement,setting,value
"O=CN(O)C/C=C/P(=O)([O-])O.[Na+] [Compound 12a, Sodium hydrogen [(1E)-3-(N-hydroxyformamido)prop-1-en-1-yl]phosphonate]",half-life at 1 μM,[1]; [8],> 60 min
same,IC50,"P. falciparum [2]; Plasmodium falciparum, read-out: P. falciparum growth IC50",19 nM
same,IC50,"P. falciparum [2]; Plasmodium falciparum, read-out: Pf IC50",19 nM
same,IC50,P. falciparum DXR [3]; read-out: P. falciparum DXR IC50,92 nM
same,SI^Pf Selectivity Index for P. falciparum,HepG2 cells; HepG2 IC50/P.falciparum IC50,2632
same,IC50,"HepG2 cells; HepG2, read-out: HepG2 IC50",> 50000 nM
same,sensitivity in had1+HAD1-GFP strain,[4],restored
same,resistance of had1 parasites compared with wild-type 3D7,[4],3.4 fold
same,half-life at 1 μM,in vitro,> 120 min
same,plasma concentration at 8 h relative to Pf IC50 of 18a in vitro,[5]; after 18a 20 mg/kg i.p.,approximately 200 fold
same,concentration at 8 h,"[5]; female, Swiss Webster, mouse, in vivo, 20 mg/kg, read-out: plasma concentration of 12a at 8 h",485 ng/mL and 2.8 µM
"CC(C)(C)C(=O)OCOP(=O)(/C=C/CN(O)C=O)OCOC(=O)C(C)(C)C [Compound 18a, [({[(2,2-dimethylpropanoyl)oxy]methoxy}[(1E)-3-(N-hydroxyformamido)prop-1-en-1-yl]phosphoryl)oxy]methyl 2,2-dimethylpropanoate]",half-life at 1 μM,"[1]; mouse, microsomes",< 5 min
same,half-life,[1]; [8],< 5 min
same,IC50,"P. falciparum [2]; Plasmodium falciparum; Table 4, growth inhibition; read-out: Pf IC50",13 nM
same,IC50,P. falciparum [2]; Plasmodium falciparum; read-out: P. falciparum growth IC50,13 nM
same,"DOXP levels, treated vs untreated parasites",MEP pathway metabolites,did not show significant difference
same,"levels of metabolites downstream of DXR, treated vs untreated parasites","MEP pathway metabolites; MEP, CDP-ME, MEcPP",reduced levels
same,drop in luciferin signal intensity compared to vehicle,P. berghei ANKA; 20 mg/kg i.p.,3 log
same,luciferin signal intensity (parasitemia),P. berghei ANKA; 20 mg/kg i.p. daily for five days,2.87×10^3
same,luciferin signal intensity (parasitemia),P. berghei ANKA; 50 mg/kg i.p. daily for five days,2.34×10^3
same,IC50,"HepG2 cells; HepG2, Table 5, cytotoxicity, read-out: HepG2 IC50",> 50000 nM
same,sensitivity in had1+HAD1-GFP strain,[4],restored
same,resistance of had1 parasites compared with wild-type 3D7,[4],2.5 fold
same,half-life at 1 μM,in vitro,< 5 min
same,conversion of prodrug to 12a in vivo,"[5]; 20 mg/kg i.p., Swiss Webster mice",rapidly converted to 12a
"O=C(c1ccccc1)N(O)C/C=C/P(=O)([O-])O.[Na+] [Compound 32a, Sodium hydrogen [(1E)-3-(N-hydroxy-1-phenylformamido)prop-1-en-1-yl]phosphonate]",MIC99,Mtb; [9],25 µg/mL
same,MIC99,Mtb; [10],> 50 µg/mL
same,IC50,P. falciparum [2]; [11],0.103 µg/mL
same,IC50,P. falciparum DXR [3]; [12],110 nM and 106 nM
same,IC50,"HepG2 cells; HepG2, Table 6, cytotoxicity, read-out: HepG2 IC50",> 50000 nM
same,Mtb Dxr (% Residue),Mtb DXR,(36.87) %
same,resistance of had1 parasites compared with wild-type,[4]; in words,more resistant
"O=C(CCc1ccccc1)N(O)C/C=C/P(=O)([O-])O.[Na+] [Compound 32c, Sodium hydrogen [(1E)-3-(N-hydroxy-3-phenylpropanamido)prop-1-en-1-yl]phosphonate]",MIC99,Mtb; [9],> 100 µg/mL
same,MIC99,Mtb; [10],> 100 µg/mL
same,IC50,P. falciparum [2]; [11],3.3 µg/mL
same,IC50,P. falciparum DXR [3]; [12],1340 nM
same,Mtb Dxr (% Residue),Mtb DXR,(62.3) %
"O=C(CCCc1ccccc1)N(O)C/C=C/P(=O)([O-])O.[Na+] [Compound 32d, Sodium hydrogen [(1E)-3-(N-hydroxy-4-phenylbutanamido)prop-1-en-1-yl]phosphonate]",MIC99,Mtb; [9],> 100 µg/mL
same,MIC99,Mtb; [10],> 100 µg/mL
same,IC50,P. falciparum [2]; [11],1.6 µg/mL
same,IC50,P. falciparum DXR [3]; [12],898 nM
same,Mtb Dxr (% Residue),Mtb DXR,(29.2) %
CC(=O)N(O)CCCP(=O)(O)O [FR900098],IC50,P. falciparum DXR [6],24 nM
C[C@@H]1CC[C@H]2[C@@H](C)C(=O)O[C@@H]3O[C@@]4(C)CC[C@@H]1[C@]32OO4 [artemisinin],IC50,P. falciparum [7],10.4 nM
